What follows are molecules tested against T1, AKT1 (Homo sapiens, UniProt P31749) (assay: HTS ATP-utilizing enzyme assay, off-chip mobility-shift (Caliper HTS 250)). Details: kinase named = inhibitory activity/selectivity; test compound 10 μM; active = greater than three-sigma from mean.
T1 construct: purchased Upstate 14-276
Assay type: biochemical
Source text: The following procedures describe the reagent and plate preparation for a HTS of an ATP-utilizing enzyme, such as a protein kinase, run in an off-chip mobility-shift assay format. The following provides an HTS protocol for running a protein kinase HTS screen on a Caliper HTS 250 microfluidics system. The following parameters are dependent on the protein kinase used and can be determined by one skilled in the art as part of a typical assay development process. For example, the peptide substrate used can be identified from the current literature, by screening a peptide library of potential protein kinase substrates, or by other applicable means accepted in the field.
The following table provides typical screen assay parameters appropriate for a Caliper HTS 250 microfluidics system used to assay AKT1. Parameters used to assay other protein kinases can be determined by one skilled in the art.
Assays to determine the kinase inhibitory activity of chemical entities of the present disclosure were performed using a Caliper HTS 250 microfluidics device, Greiner U-bottom assay plates, a Multidrop for transfer of reagents, and Biomek FX (AMNCBM03) software. Initially, 2.4 μL of a 1 mM solution of a test compound in 100% DMSO was added to a well of the Greiner U-bottom plate. A single Greiner U-bottom plate having 24×16 wells could include multiple test compounds. […] Using the Biomek FX, 10 μL of 0.5 M EDTA was added by the span-8 to wells, indicated as 100% Control and 2.4 μL of 100% DMSO was added by the span-8 to wells, indicated as 0% Control. […] The total reaction volume in each well was 25 μL, and the concentration of the test compound was 10 μM. The assay plate was incubated for 2.5 hrs at 20° C. to 22° C. […] The inhibition of the ATP-utilizing enzyme, such as a particular protein kinase, was determined by measuring the ratio of the peptide substrate to phosphorylated product for each well of the assay plate using the Caliper HTS 250 system.
The use of three-sigma statistical limits represents a conservative method for declaring potential hits among targets. The three-sigma activity, as well as the mean population activity, can be different for each target enzyme.
Each chemical entity listed in Table 2 was tested for protein kinase inhibitory activity according to the biological assays and definitions of protein kinase inhibitory activity as described herein.

T1 sequence (P31749 whole entry): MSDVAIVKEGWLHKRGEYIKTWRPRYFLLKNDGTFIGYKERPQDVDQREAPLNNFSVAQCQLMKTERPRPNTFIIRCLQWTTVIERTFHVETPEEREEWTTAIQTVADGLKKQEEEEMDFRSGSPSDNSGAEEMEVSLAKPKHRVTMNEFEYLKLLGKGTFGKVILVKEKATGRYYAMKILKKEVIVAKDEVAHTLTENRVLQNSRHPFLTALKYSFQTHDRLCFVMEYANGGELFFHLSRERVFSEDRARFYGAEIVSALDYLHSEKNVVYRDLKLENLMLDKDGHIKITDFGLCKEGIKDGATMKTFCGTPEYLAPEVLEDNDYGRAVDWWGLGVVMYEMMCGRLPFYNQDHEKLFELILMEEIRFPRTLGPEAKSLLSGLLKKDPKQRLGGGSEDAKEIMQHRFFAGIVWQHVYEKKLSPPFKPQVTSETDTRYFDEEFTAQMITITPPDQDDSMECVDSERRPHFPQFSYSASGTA

Structure (SMILES) | Activity
CCOC(=O)c1cc(-c2csc(N(CCCN3CCOCC3)C(=O)c3cccs3)n2)on1 [ethyl 5-(2-(N-(3-morpholinopropyl)thiophene-2-carboxamido)thiazol-4-yl)isoxazole-3-carboxylate] | AKT1
O=C(c1cccs1)N(CCCN1CCOCC1)c1nc(-c2ccccc2[N+](=O)[O-])cs1 [N-(3-morpholinopropyl)-N-(4-(2-nitrophenyl)thiazol-2-yl)thiophene-2-carboxamide] | AKT1
N#Cc1ccc(-c2csc(N(CCCN3CCOCC3)C(=O)c3cccs3)n2)cc1 [N-(4-(4-cyanophenyl)thiazol-2-yl)-N-(3-morpholinopropyl)thiophene-2-carboxamide] | AKT1
COc1ccc(-c2csc(N(CCCN3CCCC3)C(=O)c3cccs3)n2)cc1 [N-(4-(4-methoxyphenyl)thiazol-2-yl)-N-(3-(pyrrolidin-1-yl)propyl)thiophene-2-carboxamide] | AKT1
O=C(c1cccs1)N(CCCN1CCOCC1)c1nc(-c2ccc(N3CCOCC3)cc2)cs1 [N-(4-(4-morpholinophenyl)thiazol-2-yl)-N-(3-morpholinopropyl)thiophene-2-carboxamide] | AKT1
CCN(CC)CCCN(C(=O)c1cccs1)c1nc(-c2ccccc2)cs1 [N-(3-(diethylamino)propyl)-N-(4-phenylthiazol-2-yl)thiophene-2-carboxamide] | AKT1
N#CCCN1CCN(CCCN(C(=O)c2cccs2)c2nc(-c3cc4ccccc4o3)cs2)CC1 [N-(4-(benzofuran-2-yl)thiazol-2-yl)-N-(3-(4-(2-cyanoethyl)piperazin-1-yl)propyl)thiophene-2-carboxamide] | AKT1
COC(=O)C1CCCN1C(=O)CCN(C(=O)c1cccs1)c1nc(-c2cc3ccccc3o2)cs1 (centres unmarked) [methyl 1-(3-(N-(4-(benzofuran-2-yl)thiazol-2-yl)thiophene-2-carboxamido)propanoyl)pyrrolidine-2-carboxylate] | AKT1
O=C(NCCCN(C(=O)c1cccs1)c1nc(-c2cc3ccccc3o2)cs1)c1ccncc1 [N-(3-(N-(4-(benzofuran-2-yl)thiazol-2-yl)thiophene-2-carboxamido)propyl)isonicotinamide] | AKT1
O=C(O)COc1ccc(-c2csc(N(CCCN3CCOCC3)C(=O)c3cccs3)n2)cc1 [2-(4-(2-(N-(3-morpholinopropyl)thiophene-2-carboxamido)thiazol-4-yl)phenoxy)acetic acid] | AKT1
O=C(CCN1CCOCC1)NCCCN(C(=O)c1cccs1)c1nc(-c2cc3ccccc3o2)cs1 [N-(4-(benzofuran-2-yl)thiazol-2-yl)-N-(3-(3-morpholinopropanamido)propyl)thiophene-2-carboxamide] | AKT1
O=C(c1cccs1)N(CCCN1CCOCC1)c1nc(-c2ccc(OC(F)(F)F)cc2)cs1 [N-(3-morpholinopropyl)-N-(4-(4-(trifluoromethoxy)phenyl)thiazol-2-yl)thiophene-2-carboxamide] | AKT1
O=C(CC1NC(=O)NC1=O)NCCCN(C(=O)c1cccs1)c1nc(-c2cc3ccccc3o2)cs1 (centres unmarked) [N-(4-(benzofuran-2-yl)thiazol-2-yl)-N-(3-(2-(2,5-dioxoimidazolidin-4-yl)acetamido)propyl)thiophene-2-carboxamide] | AKT1
NC(=O)C1CCCN(C(=O)CCN(C(=O)c2cccs2)c2nc(-c3cc4ccccc4o3)cs2)C1 (centres unmarked) [1-(3-(N-(4-(benzofuran-2-yl)thiazol-2-yl)thiophene-2-carboxamido)propanoyl)piperidine-3-carboxamide] | AKT1
Cc1c(-c2csc(N(CCCN3CCOCC3)C(=O)c3cccs3)n2)sc2ccccc12 [N-(4-(3-methylbenzo[b]thiophen-2-yl)thiazol-2-yl)-N-(3-morpholinopropyl)thiophene-2-carboxamide] | AKT1
O=C(c1ccco1)N(CCCCN1CCOCC1)c1nc(-c2cc(-c3ccccc3)no2)cs1 [N-(4-morpholinobutyl)-N-(4-(3-phenylisoxazol-5-yl)thiazol-2-yl)furan-2-carboxamide] | AKT1
COc1ccc(-c2csc(N(CCCN3CCOCC3)C(=O)c3cccs3)n2)cc1OC [N-(4-(3,4-dimethoxyphenyl)thiazol-2-yl)-N-(3-morpholinopropyl)thiophene-2-carboxamide] | AKT1
CCN(CC)CCCN(C(=O)c1ccccc1)c1nc(-c2ccc(OC)cc2)cs1 [N-(3-(diethylamino)propyl)-N-(4-(4-methoxyphenyl)thiazol-2-yl)benzamide] | AKT1
COc1ccc(-c2csc(N(CCCN3CCOCC3)C(=O)C3CCCCC3)n2)cc1 [N-(4-(4-methoxyphenyl)thiazol-2-yl)-N-(3-morpholinopropyl)cyclohexanecarboxamide] | AKT1
O=C1CCCN1CCCN(C(=O)c1cccs1)c1nc(-c2cc(-c3ccccc3)no2)cs1 [N-(3-(2-oxopyrrolidin-1-yl)propyl)-N-(4-(3-phenylisoxazol-5-yl)thiazol-2-yl)thiophene-2-carboxamide] | AKT1
O=C(O)CCOc1cccc(-c2csc(N(CCCN3CCOCC3)C(=O)c3cccs3)n2)c1 [3-(3-(2-(N-(3-morpholinopropyl)thiophene-2-carboxamido)thiazol-4-yl)phenoxy)propanoic acid] | AKT1
O=C(CCCN(C(=O)c1cccs1)c1nc(-c2cc3ccccc3o2)cs1)N1Cc2ccccc2C1 [N-(4-(benzofuran-2-yl)thiazol-2-yl)-N-(4-(isoindolin-2-yl)-4-oxobutyl)thiophene-2-carboxamide] | AKT1
COc1ccccc1-c1csc(N(CCCN2CCOCC2)C(=O)c2cccs2)n1 [N-(4-(2-methoxyphenyl)thiazol-2-yl)-N-(3-morpholinopropyl)thiophene-2-carboxamide] | AKT1
CNC(=O)C1CCN(CCCN(C(=O)c2cccs2)c2nc(-c3cc4ccccc4o3)cs2)CC1 [1-(3-(N-(4-(benzofuran-2-yl)thiazol-2-yl)thiophene-2-carboxamido)propyl)-N-methylpiperidine-4-carboxamide] | AKT1
Cc1ccc(-c2csc(N(CCCN3CCOCC3)C(=O)c3cccs3)n2)c(C)c1 [N-(4-(2,4-dimethylphenyl)thiazol-2-yl)-N-(3-morpholinopropyl)thiophene-2-carboxamide] | AKT1
O=C(c1cccs1)N(CCCN1CCOCC1)c1nc(-c2ccc(Cl)cc2Cl)cs1 [N-(4-(2,4-dichlorophenyl)thiazol-2-yl)-N-(3-morpholinopropyl)thiophene-2-carboxamide] | AKT1
CCOC(=O)CC1CCN(C(=O)CCCN(C(=O)c2cccs2)c2nc(-c3cc4ccccc4o3)cs2)CC1 [ethyl 2-(1-(4-(N-(4-(benzofuran-2-yl)thiazol-2-yl)thiophene-2-carboxamido)butanoyl)piperidin-4-yl)acetate] | AKT1
NC(=O)C1CCN(CCCN(C(=O)c2cccs2)c2nc(-c3cc4ccccc4o3)cs2)CC1 [1-(3-(N-(4-(benzofuran-2-yl)thiazol-2-yl)thiophene-2-carboxamido)propyl)piperidine-4-carboxamide] | AKT1
CCOC(=O)Cc1csc(NC(=O)c2csc(N(CCCN3CCOCC3)C(=O)c3cccs3)n2)n1 [ethyl 2-(2-(2-(N-(3-morpholinopropyl)thiophene-2-carboxamido)thiazole-4-carboxamido)thiazol-4-yl)acetate] | AKT1
